Data as given in US4224342A, “Guanidinobenzoic acid compounds and process for preparing the same” (Ono Pharmaceutical Co., Ltd., priority 1977, dated 1980).

Tests used:
trypsin = biological target: T1, trypsin (Bos taurus, UniProt P00760); assay: In vitro inhibition of trypsin hydrolysis of p-tosylarginine methyl ester; type: biochemical; conditions: trypsin 0.5 μg, p-tosylarginine methyl ester 20 mM, Tris-HCl pH 8.5, 37° C., 30 minutes; read-out: 50% Inhibition Concentration, Anti-Trypsin
T1 sequence (P00760 24-246): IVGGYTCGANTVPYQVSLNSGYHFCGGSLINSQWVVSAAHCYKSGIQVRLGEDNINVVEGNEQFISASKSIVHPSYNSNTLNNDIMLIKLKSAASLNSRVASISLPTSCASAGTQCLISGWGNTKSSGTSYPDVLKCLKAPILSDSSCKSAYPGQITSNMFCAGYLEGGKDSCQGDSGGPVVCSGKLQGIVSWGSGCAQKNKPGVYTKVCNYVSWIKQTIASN

plasmin = biological target: T2, plasmin (Homo sapiens, UniProt P00747); assay: In vitro inhibition of plasmin (human euglobulin, streptokinase, fibrinogen); type: biochemical; conditions: fibrinogen 4%, borate saline pH 7.4, 37° C., 30 minutes, read-out: 50% Inhibition Concentration, Anti-Plasmin
T2 construct: from tissue; host or cells: human euglobulin (blood plasma fraction), with streptokinase added
T2 sequence (P00747 581-810 limits assumed): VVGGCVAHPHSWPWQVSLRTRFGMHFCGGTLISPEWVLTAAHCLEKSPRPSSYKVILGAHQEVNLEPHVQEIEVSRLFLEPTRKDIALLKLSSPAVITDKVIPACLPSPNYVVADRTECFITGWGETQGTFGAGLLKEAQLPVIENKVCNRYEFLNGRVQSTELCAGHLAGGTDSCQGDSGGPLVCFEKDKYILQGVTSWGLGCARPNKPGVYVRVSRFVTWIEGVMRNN
T2 sequence (P00747 97-580 partner limits assumed): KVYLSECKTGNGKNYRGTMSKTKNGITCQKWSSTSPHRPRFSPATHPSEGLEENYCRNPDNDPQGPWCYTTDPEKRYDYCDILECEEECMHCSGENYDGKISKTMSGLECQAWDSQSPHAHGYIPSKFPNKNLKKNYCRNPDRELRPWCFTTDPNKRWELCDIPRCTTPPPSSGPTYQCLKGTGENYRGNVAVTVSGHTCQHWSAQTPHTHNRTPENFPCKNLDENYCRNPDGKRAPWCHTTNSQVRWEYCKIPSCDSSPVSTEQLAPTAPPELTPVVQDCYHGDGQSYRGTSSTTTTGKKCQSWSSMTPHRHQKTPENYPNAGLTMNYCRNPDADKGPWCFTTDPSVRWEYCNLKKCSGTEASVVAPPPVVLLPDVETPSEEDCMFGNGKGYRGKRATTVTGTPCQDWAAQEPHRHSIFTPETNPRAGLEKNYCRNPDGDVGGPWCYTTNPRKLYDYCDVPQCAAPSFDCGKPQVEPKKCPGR
Experimental: 0.1 ml of human euglobulin (10 fold dilution), 0.1 ml of streptokinase (2000 unit/ml), 0.4 ml of fibrinogen (4% solution), 0.3 ml of a 0.1 M borate saline buffer solution (pH 7.4) and 0.1 ml of a solution of each of the following compounds represented by the formula (I) at various concentrations was allowed to react at a temperature of 37° C. for 30 minutes.

Acute toxicity in mice = conditions: mouse, in vivo, route not given
Acute toxicity in rats = conditions: rat, in vivo, route and LD50 not given

Compound | IC50 (trypsin) [µM] | IC50 (plasmin) [µM] | LD50 (Acute toxicity in mice) [mg/kg] | LD50 (Acute toxicity in rats) [mg/kg]
N=C(N)Nc1ccc(C(=O)Oc2ccc(CC(=O)O)cc2)cc1 [P-(p-Guanidinobenzoyloxy)phenylacetic Acid] | 0.029 | 0.25 | – | –
COC(=O)Cc1ccc(OC(=O)c2ccc(NC(=N)N)cc2)cc1 [methyl p-(p-guanidinobenzoyloxy)phenyl acetate] | 0.009 | 0.22 | – | –
CS(=O)(=O)O.N=C(N)Nc1ccc(C(=O)Oc2ccc(CC(=O)O)cc2)cc1 [4-(4-guanidinobenzoyloxy)phenylacetic acid mesylate] | – | – | 4500 | 4400
